Measurements taken from ChEMBL document CHEMBL1153050, “Amidine derived inhibitors of acid-sensing ion channel-3 (ASIC3)” (Bioorg Med Chem Lett, 2009).
Active and inactive are the calls of the source. The rule behind the calls is not given here.

What was measured:
[1] = biological target: T1, Acid-sensing ion channel 3 (Homo sapiens) (UniProt Q9UHC3); experiment: Inhibition of ASIC3 at 10 uM by patch-clamp electrophysiology assay relative to baseline peak current
T1 sequence (whole entry): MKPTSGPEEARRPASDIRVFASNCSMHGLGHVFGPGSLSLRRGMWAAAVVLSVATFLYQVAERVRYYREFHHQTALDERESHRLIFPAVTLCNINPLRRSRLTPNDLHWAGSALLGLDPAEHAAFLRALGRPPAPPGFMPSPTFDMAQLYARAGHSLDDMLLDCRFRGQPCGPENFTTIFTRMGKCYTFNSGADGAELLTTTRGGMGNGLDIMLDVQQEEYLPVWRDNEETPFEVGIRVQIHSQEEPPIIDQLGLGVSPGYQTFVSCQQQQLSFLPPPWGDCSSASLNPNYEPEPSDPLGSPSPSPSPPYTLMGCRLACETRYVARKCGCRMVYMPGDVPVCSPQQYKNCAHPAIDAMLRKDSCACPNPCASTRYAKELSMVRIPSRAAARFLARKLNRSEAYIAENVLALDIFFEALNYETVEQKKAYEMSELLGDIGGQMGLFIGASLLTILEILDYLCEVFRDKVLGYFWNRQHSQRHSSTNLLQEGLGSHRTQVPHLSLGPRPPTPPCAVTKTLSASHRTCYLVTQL

[2] = biological target: T1, Acid-sensing ion channel 3 (Homo sapiens); experiment: Inhibition of ASIC3 at 1 uM by patch-clamp electrophysiology assay relative to baseline peak current
[3] = biological target: T2, Acid-sensing ion channel 3 (Homo sapiens, UniProt Q9UHC3); experiment: Inhibition of ASIC3 by patch-clamp electrophysiology assay
T2 sequence (Q9UHC3 whole entry): T1 sequence (whole entry)

[4] = test system: Rattus norvegicus; experiment: Analgesic activity against complete Freund's adjuvant-induced […] in Sprague-Dawley rat assessed as reversal of mechanical hypersensitivity at 30 mg/kg, ip after 30 mins; assay type: functional, organism-based; design: dose 30 mg/kg
[5] = Plasma clearance in iv dosed rat; assay type: ADME, organism-based
[6] = Half life in iv dosed rat plasma; assay type: ADME, organism-based
[7] = Half life in iv dosed rat blood; assay type: ADME, organism-based; conditions: whole blood
[8] = Blood clearance in iv dosed rat; assay type: ADME, organism-based; conditions: whole blood
[9] = test system: Rattus norvegicus; experiment: Analgesic activity against complete Freund's adjuvant-induced […] in Sprague-Dawley rat assessed as reversal of mechanical hypersensitivity at 20 mg/kg, po after 30 mins; assay type: functional, organism-based; design: dose 20 mg/kg

Row | Compound | inhibition [1] | inhibition [2] | IC50 [3] | other results
1 | COc1cc(F)cc(-c2cc3cc(C(=N)N)ccc3[nH]2)c1 | 98% | 77% | 374 nM | 
2 | N=C(N)c1ccc2[nH]c(-c3cc(F)cc(Cl)c3)cc2c1 | 99% | 82% | 278 nM | 
3 | N=C(N)c1ccc2[nH]c(-c3cc(N)cc(Cl)c3)cc2c1 |  | 78% | 95 nM | 
4 | Cn1c(-c2ccc(C(=N)N)cc2)cc2cc(C(=N)N)ccc21 |  | 14% |  | 
5 | N=C(N)c1ccc2[nH]c(-c3cc(Cl)cc(CNc4ccccc4)c3)cc2c1 |  | 83% | 114 nM | 
6 | N=C(N)c1ccc2[nH]c(-c3cc(Cl)cc(Cl)c3Cl)cc2c1 |  | 91% | 135 nM | 
7 | N=C(N)c1ccc2[nH]c(-c3cc(F)cc(Br)c3)cc2c1 | 96% | 93% | 59 nM | 
8 | N=C(N)c1ccc(-c2cc3ccccc3[nH]2)cc1 | 46% |  |  | 
9 | N#Cc1c(Cl)cc(-c2cc3cc(C(=N)N)ccc3[nH]2)cc1Cl |  | 83% | 272 nM | 
10 | N=C(N)c1ccc2[nH]c(-c3cc(Cl)cc(Cl)c3)cc2c1 | 98% | 92% | 133 nM | Activity [4]: Active; clearance [5]: 8.5 mL/min/kg; half-life [6]: 120 min; half-life [7]: 264 min; clearance [8]: 8.5 mL/min/kg; Activity [9]: Active
11 | N=C(N)c1ccc2[nH]c(-c3cc(Cl)cc(-c4ccccc4)c3)cc2c1 |  | 94% |  | 
12 | Cc1cc(Cl)cc(-c2cc3cc(C(=N)N)ccc3[nH]2)c1 |  | 87% | 51 nM | 
13 | N=C(N)c1ccc(-c2cc3ccc(C(=N)N)cc3[nH]2)cc1 | 83% | 33% |  | 
14 | N=C(N)c1ccc2[nH]c(-c3ccccc3)cc2c1 | 88% |  | 2760 nM | 
15 | N=C(N)c1ccc(-c2nc3cc(C(=N)N)ccc3[nH]2)cc1 | 53% |  |  | 
16 | N=C(N)c1ccc2[nH]c(-c3cc(Br)cc(Br)c3)cc2c1 | 92% | 92% | 59 nM | 
17 | N=C(N)c1ccc2[nH]c(-c3cc(Cl)nc(Cl)c3)cc2c1 |  | 84% | 291 nM | 
18 | N=C(N)c1ccc2cc(-c3ccccc3)[nH]c2c1 |  | 18% |  | 
19 | N=C(N)c1ccc2[nH]c(-c3cc(Cl)cc(NCc4ccccc4)c3)cc2c1 |  | 91% | 77 nM | 
